# Measured values reported in patent US7402575B2, “Methods of treating inflammation” (priority 2003, dated 2008).
# Entries after “also recorded” stand apart in the source; their conditions may differ.
# Tested on: E. coli sepsis in dogs
# Assay: Chitobiose given after 3.5 h of E. coli sepsis, reversal of myocardial depression
# Assay type: in vivo, dog
# Set-up: HR: unit not given here
# Conditions: for HR / Pwp: mean±SD
# Experimental: The E. coli model used in this study was identical to that previously described. Sepsis was induced by the intravenous infusion of 10^10 colony forming units of live E. coli (designation 0111:B4). The bacteria were suspended in normal saline infusion, which was given over 0.5 h. A constant infusion of approximately 5×10^9 colony forming units/h of E. coli was then maintained for the remainder of the experiment.
# During the experiment, the animals (16-21) kg were anesthetized with thiopental sodium (20 mg/kg iv) and constantly infused with sufentanil citrate (1 ug/min) and midazolam (5 ug/kg/min). The rates were adjusted to abolish the palpebral reflex. The animals were placed in the supine position; the trachea was intubated with an endotracheal tube; and the lungs were mechanically ventilated at a tidal volume of 20 ml/kg. The ventilator rate was initially set to maintain blood pH at approximately 7.35 and was changed as necessary over the course of the experiment to maintain blood pH as normal as possible. 100% oxygen was inspired to prevent hypoxemia from contributing to the results, and arterial oxygen tension was maintained greater than 500 mmHg over the course of the study in all experiments.
# A thermister tipped catheter was advanced from the jugular vein into the pulmonary artery to measure pulmonary arterial pressure, mean pulmonary capillary wedge pressure (Pwp), right atrial pressure, thermodilution cardiac output (CO, Columbus Instruments, Ohio), and to obtain mixed venous oxygen blood samples. A polyethylene catheter was placed into the femoral artery to measure mean blood pressure (MAP) and to withdraw samples of blood for blood gas analysis. All catheters were connected to transducers (Cobe Laboratories) and were referenced relative to the left atrium. All transducers were connected to a chart recorder (Astro-Med, W Warwick, R.I.). Heart rate (HR) was measured from the recorder tracing. Stroke volume (SV) was calculated as CO/heart rate. Stroke work (SW) was calculated from SV×(MAP-Pwp).
# After baseline measurements were obtained, bacteria were infused over a six hour period. Chitobiose was infused at 3.5 hours post sepsis after myocardial depression had already developed and was administered over a 0.5 h period. The dose used was 1000 mg (40 mg/kg) in which the drug was mixed in 100 ml D5W. Based on preliminary calculations, this dose could achieve an approximate plasma concentration of 0.5×10^−4 M. 100 mg/hr of chitobiose (5 mg/kg) mixed in 50 ml of D5W was then infused over the remaining course of the experiment. Measurements were obtained after 3.5 hr of sepsis, after treatment, and 1 and 2 hrs post treatment. Stroke work (SW) was the primary measurement of the myocardial contractility used in this study. Pulmonary capillary wedge pressure (Pwp) was used as an index of preload and was maintained constant between conditions at approximately 10 mmHg. Normal saline solution was given as necessary to maintain Pwp relatively constant.
# Statistics included one way analysis of variance for repeated measures and Student Newman Keuls' multiple comparison test. The results are reported mean±1SD.
# [1] = post sepsis (3.5 h), before chitobiose
compound,measurement,setting,value
"CC(=O)N[C@H]1[C@H](O[C@H]2[C@H](O)[C@@H](NC(C)=O)C(O)O[C@@H]2CO)O[C@H](CO)[C@@H](O)[C@@H]1O (stereo partly shown) [chitobiose, N,N′ diacetylglucosamine]",Stroke work post treatment vs 3.5 hrs postsepsis,1 and 2 hrs post treatment,significant increase in stroke-work at 1 and 2 hrs post treatment; also recorded: increased after chitobiose treatment
same,HR,1 hr post treatment,86±20
same,Pwp,1 hr post treatment,9.5±1.2 mmHg
same,HR,2 hrs post treatment,87±12
same,Pwp,2 hrs post treatment,9.9±0.9 mmHg
same,HR,after treatment,91±25
same,HR,baseline,48±9
same,Pwp,baseline,10±0.8 mmHg
same,Mean arterial pressure after treatment vs 3.5 hrs postsepsis,"chitobiose 1000 mg over 0.5 h at 3.5 h post sepsis, then 100 mg/hr, 4 dogs",significant increase in mean arterial pressure after treatment; also recorded: increased after treatment with chitobiose
same,Myocardial depression already developed in sepsis,chitobiose administered after 3.5 hr of sepsis,reversal of the myocardial depression observed
same,Cardiac output vs baseline,"dog, in vivo",higher at the different conditions as compared with baseline
same,Stroke work at the post treatment conditions vs baseline,"dog, in vivo",not different from that found at baseline
same,Stroke-volume among the treatment conditions,"dog, in vivo",did not reach statistical significance
same,HR,[1],98±24
same,Pwp,[1],9.6±0.8 mmHg
same,Pwp,post treatment,10.4±0.5
